The source of these data is patent US20080312304A1, “Topical compositions containing metronidazole” (priority 2007, published 2008).

Series [1] is described as follows: physical stability test of aqueous metronidazole compositions (crystal formation or precipitation). The note with it: for Results from stability test: 1.0% metronidazole, 24 hours room temperature, then 7 days at about 4 °C; for concentration of the solubility enhancing agent required to obtain a stable aqueous solution of 1.0% metronidazole: agent used as the only solubility enhancing agent, stability test of Example 1; for N-2-hydroxyethyl urea concentration functionally equivalent to 1% of the agent in inducing the solubility enhancing effect: worked out from Examples 2, 3 and 4. In kind it is physicochemical. The procedure: The solubility enhancing effect of the combination of niacinamide, urea, and hydroxyalkyl urea in increasing the solubility of metronidazole in the aqueous compositions is evaluated by physical stability of the prepared compositions.
Therefore, the compositions in accordance with the present invention are subject to a physical stability test. The protocol for the stability test is as follows: metronidazole and the solubility enhancing agents are combined with water either at room temperature or elevated temperature while stirring until dissolved. The solutions are permitted to cool to room temperature. Customary auxiliaries and additives may be added to the aqueous solutions containing solubilized metronidazole and solubility enhancing agents. The solutions may be gelled by using the suitable gelling agents. The compositions both in gel or solution form are then packaged in clear glass vials and sealed. The vials are kept at room temperature for 24 hours and monitored for crystal formation or precipitation. After 24 hours, the vials are placed in a refrigerator maintained at a temperature of about 4 ° C. for 7 days. After 7 days, the vials are removed from the refrigerator. Evidence of crystal formation or precipitation in the compositions is examined.

For series [2] the following is noted: at 25 °C; cited from earlier work.

`Cc1ncc([N+](=O)[O-])n1CCO` [Metronidazole, 1-(2-hydroxyethyl)-2-methyl-5-nitroimidazole]: the “Results from stability test” value in series [1] (2% niacinamide in water) is “Crystals formed”; in series [1] (2.0% urea, 2.0% N-2-hydroxyethyl urea, 2.0% niacinamide in water) it was “Clear (‘clear’ means no crystals or precipitates)”; in series [1] (3% niacinamide in water) it was “Crystals formed”; in series [1] (3.0% urea, 3.0% N-2-hydroxyethyl urea, 1.5% niacinamide in water), “Clear (‘clear’ means no crystals or precipitates)”; in series [1] (4% niacinamide in water), “Crystals formed”; in series [1] (5% niacinamide in water), “Clear (‘clear’ means no crystals or precipitates)”. Moreover, the “Results from stability test” value is listed as “Crystals formed” in series [1] (7% urea in water); “Crystals formed” in series [1] (8% urea in water); “Crystals formed” in series [1] (9% urea in water); “Clear (‘clear’ means no crystals or precipitates)” in series [1] (10% urea in water); “Crystals formed” in series [1] (13% N-2-hydroxyethyl urea in water); “Crystals formed” in series [1] (14% N-2-hydroxyethyl urea in water). Further, the “Results from stability test” value was “Crystals formed” in series [1] (15% N-2-hydroxyethyl urea in water) and “Clear (‘clear’ means no crystals or precipitates)” in series [1] (16% N-2-hydroxyethyl urea in water). In series [1] (composition containing 2.0% N-2-hydroxyethyl urea, 2.0% niacinamide, 2.0% urea and 1.0% metronidazole), the “result from the stability test, in words” value is “stable”.
As for `NC(=O)NCCO` [N-2-hydroxyethyl urea], in series [1], the “concentration of the solubility enhancing agent required to obtain a stable aqueous solution of 1.0% metronidazole” value (“concentration … of 1.0% metronidazole” for short) is “about 16%”.
As for `NC(=O)c1cccnc1` [niacinamide], in series [1], the “concentration … of 1.0% metronidazole” value is on record as “about 5%” and the “N-2-hydroxyethyl urea concentration functionally equivalent to 1% of the agent in inducing the solubility enhancing effect” value is recorded as “about 3.2%”. Further, the water solubility limit entry in series [2] was “about 50 % by weight”.
Consider `NC(N)=O` [urea], for which, in series [1], the “concentration … of 1.0% metronidazole” value is “about 10%” and the “N-2-hydroxyethyl urea concentration functionally equivalent to 1% of the agent in inducing the solubility enhancing effect” value was “about 1.6%”.
